The record followed here is PMC9673142, “1,3-Diarylpyrazolyl-acylsulfonamides Target HadAB/BC Complex in Mycobacterium tuberculosis” (ACS Infectious Diseases, 2022).

SMILES strings stand for the structures. Values after ≈ are worked out from the molar mass of the structure shown. Values joined by “and” are separate entries in the source; they are usually repeats but may differ in a detail not shown here. Identical values can stand only once. “Also recorded” adds a separate entry of the source. Like-named read-outs stand apart in the source and are kept apart here.

The subject of one series is Mtb H37Rv. Put plainly: microbe, parasite or virus in culture. It counts as cell-based. The conditions noted are these: Mycobacterium tuberculosis.
For a further series, the target named is Mtb HadAB (Mycobacterium tuberculosis, UniProt I6WYY7+P9WFK1). Put plainly: biochemical. Conditions: trans-2-C16:1-CoA 60 μM, mean ± SD of duplicate assays.
The subject of another series is Mtb HadBC. The class given is biochemical. The conditions noted are these: compound 50 μM, HadBC 130 nM, trans-2-C16:1-CoA 25 μM.
Another series deals with Mtb H37Rv mc^26206. In words: microbe, parasite or virus in culture. It counts as cell-based. The conditions noted are these: Mycobacterium tuberculosis, read-out: MIC Mtb WT.
Series [1] concerns mycolic acid biosynthesis in Mtb H37Rv mc^26206. It counts as cell-based. The conditions noted are these: 3× MIC, 24 h.
For another series, the system named is HepG2. In words: HepG2 cytotoxicity. The conditions noted are these: Homo sapiens.
The target in series [2] is HadA, HadB, BCG_0547c (HadD) (Mycobacterium bovis BCG, UniProt I6WYY7+P9WFK1). Put plainly: biochemical. Conditions: for competition from the bead matrices, HadA, HadB and HadD: at 0.49 μM, n = 3. It counts as binding.
In a further series the test system is Mtb. It counts as cell-based, Mycobacterium tuberculosis.
In a further series the target is BCG_2231 (DlaT, Rv2215) (Mycobacterium bovis, UniProt P65634). In words: biochemical. The class given is binding, Mycobacterium bovis BCG.
Series [3] has as its target T1, BCG_0628c (lpqN, Rv0583c) (Mycobacterium tuberculosis, UniProt O53780).
T1 sequence (O53780 20-228): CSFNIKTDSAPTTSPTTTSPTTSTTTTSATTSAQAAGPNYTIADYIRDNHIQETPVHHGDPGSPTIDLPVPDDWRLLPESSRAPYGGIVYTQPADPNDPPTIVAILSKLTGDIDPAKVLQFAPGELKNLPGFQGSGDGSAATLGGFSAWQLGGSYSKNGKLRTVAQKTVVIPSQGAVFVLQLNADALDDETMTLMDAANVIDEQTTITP
In words: biochemical. It counts as binding, Mycobacterium bovis BCG.

The test system of the next series is Mtb H37RvMA. Put plainly: microbe, parasite or virus in culture. It counts as cell-based. The conditions noted are these: Middlebrook 7H9/glycerol/ADC/tween-80.
Setting [4] is: HepG2, read-out: HepG2 IC50 (galactose).
Setting [5] is: HepG2, read-out: HepG2 IC50 (glucose).

The IC50 is the concentration needed to halve the response being measured. The Kd is the equilibrium constant for the complex coming apart. A high value points to a looser complex. The solubility is the concentration that dissolves in the medium under given conditions.

As for `CS(=O)(=O)c1nnc(Cc2cn(-c3ccc(Cl)cc3)nc2-c2ccncc2)o1` [Compound 13], the MIC came to 62.5 µM (≈ 26 µg/mL) in the series on Mtb H37Rv (read-out: Mtb MIC) and 3.75 µM (≈ 1.56 µg/mL) in the series on Mtb H37Rv mc^26206. For the same compound, half-maximal inhibition against Mtb HadAB (HadAB IC50, HadAB 22 nM) (IC50) required 102 ± 17 µM. For the same compound, in the series on Mtb HadBC, the “HadBC % inhibition at 50 μM” value amounted to 37±5%. For the same compound, the “inhibition of biosynthesis of mycolic acids” value in [1] is given as 0–49%.

Consider `O=C(O)CCc1cn(-c2ccc(Br)cc2)nc1-c1ccc(Cl)cc1` [Compound 10], for which the MIC in the series with Mtb H37Rv (read-out: Mtb MIC) is above 50 µM; with Mtb H37Rv mc^26206, 1.5 µM (≈ 0.609 µg/mL). Further, at Mtb HadAB (HadAB IC50, HadAB 22 nM), it took 3.3 ± 1.7 µM to reach half-maximal inhibition (IC50). For the same compound, the “HadBC % inhibition at 50 μM” value in the series on Mtb HadBC was “No inhibition”.

As for `CS(=O)(=O)NC(=O)CCc1cn(-c2ccc(Cl)cc2)nc1-c1ccc(Cl)cc1` [Compound 2], the MIC with Mtb H37Rv (read-out: Mtb MIC) was 4.7 µM (≈ 2.06 µg/mL); in the series with Mtb H37Rv (read-out: Mtb MIC (Middlebrook 7H9/DPCC/casitone/Tx)) it was 0.8 µM (≈ 0.351 µg/mL); in the series with Mtb H37Rv (read-out: Mtb MIC (Middlebrook 7H9/DPPC/cholesterol/BSA/Tx)), 4.7 µM (≈ 2.06 µg/mL); in the series with Mtb H37Rv (read-out: Mtb MIC (Middlebrook 7H9/casitone/Tx)), 0.6 µM (≈ 0.263 µg/mL); with Mtb H37Rv (read-out: Mtb MIC (Middlebrook 7H9/glucose/BSA/Tx)), 4.7 µM (≈ 2.06 µg/mL); with Mtb H37Rv mc^26206, below 0.625 µM. In addition, the IC50 against Mtb HadAB (HadAB IC50, HadAB 22 nM) was 0.13 ± 0.02 µM; in the series on HepG2 (setting [4]) it was above 50 µM; with HepG2 (setting [5]), above 50 µM; in series [2], below 0.49 µM. Also, the “HadBC % inhibition at 50 μM” value in the series on Mtb HadBC is on record as “did not inhibit; also recorded: No inhibition”. Besides, the “competition from the bead matrices, HadA, HadB and HadD” value in [2] is recorded as 56–62%. In the series with Mtb, the “Mtb pMIC99” value is given as 5.5. In addition, binding at BCG_2231 (DlaT, Rv2215) was put at a Kd of 6.6 µM. For the same compound, in the series “physchem”, the concentration in solution (solubility) came to 100 µM (≈ 43.8 µg/mL).

For the compound `CS(=O)(=O)NC(=O)NCc1cc(-c2ccc(Br)cc2)oc1-c1ccncc1` [Compound 14], on Mtb HadAB (HadAB IC50, HadAB 22 nM), the IC50 was determined as 0.02 ± 0.01 µM. The MIC in the series with Mtb H37Rv mc^26206 is below 0.243 µM.

As for `CS(=O)(=O)NC(=O)CCc1cn(-c2ccc(Br)cc2)nc1-c1ccc(Cl)cc1` [Compound 9], the half-inhibitory concentration (IC50) on Mtb HadAB (HadAB 22 nM, read-out: HadAB IC50) worked out at 0.03 ± 0.01 µM.

Take `CCc1c(COC(=O)NS(C)(=O)=O)c(-c2ccc(Cl)cc2)nn1-c1ccc(Cl)cc1` [Compound 15]: the MIC with Mtb H37Rv (read-out: Mtb MIC) is above 50 µM; with Mtb H37Rv mc^26206, 3.9 µM (≈ 1.83 µg/mL). Further, at Mtb HadAB (HadAB IC50, HadAB 22 nM), the IC50 turned out to be 28 µM. In addition, the “HadBC % inhibition at 50 μM” value in the series on Mtb HadBC was “No inhibition”.

On to `CS(=O)(=O)NC(=O)CCc1cn(-c2ccc(Cl)cc2)nc1-c1ccc(C#CCN)cc1` [Compound 4], for which the “Mtb pMIC99” value in the series with Mtb amounted to 5.4.

For `CS(=O)(=O)NC(=O)NCc1cn(-c2ccc(C(F)(F)F)nc2)nc1-c1ccncc1` [Compound 11], the IC50 at Mtb HadAB (HadAB IC50, HadAB 22 nM) is 0.062 µM and 0.06 µM. In addition, the MIC in the series on Mtb H37Rv mc^26206 is 0.625 µM (≈ 0.275 µg/mL).

On to `CS(=O)(=O)NC(=O)CCc1cn(-c2ccc(Br)cc2)nc1-c1ccncc1` [Compound 1], for which the 50% inhibitory concentration (IC50) is 0.1 ± 0.01 µM against Mtb HadAB (HadAB IC50, HadAB 22 nM); above 50 µM with HepG2 (setting [4]); above 50 µM with HepG2 (setting [5]); below 0.16 µM in [2]. The “competition from the bead matrices, HadA, HadB and HadD” value in [2] is recorded as 91–92%. Also, the Kd was 1.8 µM in series [3] and 1 µM on BCG_2231 (DlaT, Rv2215). The “Mtb pMIC99” value in the series on Mtb was 6.2. Further, the “Compound 1 MIC, H37RvMA (WT reference strain)” value in the series on Mtb H37RvMA stood at 1.9 µM. The MIC with Mtb H37RvMA (Mycobacterium tuberculosis, H37RVMA, read-out: Compound 1 MIC, H37RvMA (WT reference strain)) was 1.9 µM (≈ 0.854 µg/mL). In “physchem”, the solubility stood at 190 µM (≈ 85.4 µg/mL).

On to `O=c1[nH]nc(CCc2cn(-c3ccc(Br)cc3)nc2-c2ccc(Cl)cc2)o1` [Compound 12], for which the MIC in the series with Mtb H37Rv (read-out: Mtb MIC) came to 19 µM (≈ 8.47 µg/mL); in the series on Mtb H37Rv mc^26206, 3.12 µM (≈ 1.39 µg/mL). Moreover, on Mtb HadAB (HadAB IC50, HadAB 22 nM), the half-maximal inhibitory concentration (IC50) was 4.24 µM and 4.2 µM.
